System: 8-OHdG
Assay: Measurement of 8-OHdG in blood in mice (Test Example 4)
Format: in vivo, ICR strain mice
Conditions: 300 mg/kg body weight orally once daily for 14 days, ELISA, vs control administration group (olive oil)
From the text: Adonixanthin was used as an asymmetric carotenoid, and astaxanthin was used as a symmetric carotenoid. As experimental animals, ICR strain mice were used. Thirty (30) mice were used, and 10 mice each were assigned to the adonixanthin-administration group, the astaxanthin-administration group, and the control administration group. […]
After end of administration for 14 days, blood was collected from the postcava of the mice under isoflurane absorption anesthesia. […] Thereafter, 8-OHdG of the collected serum was measured using 8-hydroxy 2 deoxyguanosine ELISA Kit (ab201734) (manufactured by Abcam plc.) as an ELISA kit for measurement of 8-OHdG.
Each of the concentration of 8-OHdG in serum collected from the adonixanthin-administration group, and the concentration of 8-OHdG in serum collected from the astaxanthin-administration group, and the concentration of 8-OHdG in serum collected from the control administration group is shown in FIG. 4. The concentration was expressed as mean±standard error. […]

| Structure (SMILES) | Concentration of 8-OHdG in serum, FIG. 4 |
| --- | --- |
| CC1=C(/C=C/C(C)=C/C=C/C(C)=C/C=C/C=C(C)/C=C/C=C(C)/C=C/C2=C(C)C(=O)C(O)CC2(C)C)C(C)(C)CC(O)C1=O (stereo not drawn) [astaxanthin, 3,3′-dihydroxy-β,β-carotene-4,4′-dione] | low |
| CC1=C(/C=C/C(C)=C/C=C/C(C)=C/C=C/C=C(C)/C=C/C=C(C)/C=C/C2=C(C)C(=O)C(O)CC2(C)C)C(C)(C)CC(O)C1 (stereo not drawn) [adonixanthin, 3,3′-dihydroxy-β,β-caroten-4-one] | significantly lower than that in the control administration group |

From US20220054432A1, “COMPOSITION FOR INCREASING RETENTION OF CAROTENOID IN BLOOD” (ENEOS Corporation, priority 2018, published 2022)
